Positions of bridges follow the written chain, without caps; N, C: chain ends. Residues, ends and D or L forms follow the SMILES beside them.
Species on record: Rattus norvegicus
Experiment: Adenylyl cyclase stimulating activity expressed as effective dose was measured in rat osteosarcoma 17/2 cells
Format: functional, cell-based

Question: How did the EC50 turn out when `CC[C@H](C)[C@H](NC(=O)[C@H](CCC(=O)O)NC(=O)[C@H](CO)NC(=O)[C@@H](NC(=O)[C@@H](N)CO)C(C)C)C(=O)N[C@@H](CCC(N)=O)C(=O)N[C@@H](CC(C)C)C(=O)N[C@@H](CCSC)C(=O)N[C@@H](Cc1c[nH]cn1)C(=O)N[C@@H](CC(N)=O)C(=O)N[C@@H](CC(C)C)C(=O)NCC(=O)N[C@@H](CCCCN)C(=O)N[C@@H](Cc1c[nH]cn1)C(=O)N[C@@H](CC(C)C)C(=O)N[C@@H](CC(N)=O)C(=O)N[C@@H](CO)C(=O)N[C@@H](CCSC)C(=O)N[C@@H](CCC(=O)O)C(=O)N[C@@H](CCCN=C(N)N)C(=O)N[C@H](C(=O)N[C@@H](CCC(=O)O)C(=O)N[C@@H](Cc1c[nH]c2ccccc12)C(=O)N[C@@H](CC(C)C)C(=O)N[C@@H](CCCN=C(N)N)C(=O)N[C@@H](CCCCN)C(=O)N[C@@H](CC(C)C)C(=O)N[C@@H](CC(C)C)C(=O)N[C@@H](CCC(N)=O)C(=O)N[C@@H](CC(=O)O)C(=O)N[C@H](C(N)=O)C(C)C)C(C)C` was run?
Answer: 11.5 nM

Question: `CC[C@H](C)[C@H](NC(=O)[C@H](CCC(=O)O)NC(=O)[C@H](CO)NC(=O)[C@@H](NC(=O)[C@@H](N)CO)C(C)C)C(=O)N[C@@H](CCC(N)=O)C(=O)N[C@@H](CC(C)C)C(=O)N[C@@H](CCSC)C(=O)N[C@@H](Cc1c[nH]cn1)C(=O)N[C@@H](CC(N)=O)C(=O)N[C@@H](CC(C)C)C(=O)NCC(=O)N[C@@H](CCCCN)C(=O)N[C@@H](Cc1c[nH]cn1)C(=O)N[C@@H](CC(C)C)C(=O)N[C@@H](CC(N)=O)C(=O)N[C@@H](CO)C(=O)N[C@@H](CCSC)C(=O)N[C@@H](CCC(=O)O)C(=O)N[C@@H](CCCN=C(N)N)C(=O)N[C@H](C(=O)N[C@@H](CCC(=O)O)C(=O)N[C@@H](Cc1c[nH]c2ccccc12)C(=O)N[C@@H](CC(C)C)C(=O)N[C@@H](CCCN=C(N)N)C(=O)N[C@@H](CCCCN)C(=O)N[C@H]1CCCCNC(=O)C[C@@H](C(=O)N[C@H](C(N)=O)C(C)C)NC(=O)[C@H](CCC(N)=O)NC(=O)[C@H](CC(C)C)NC1=O)C(C)C` was tested. Which EC50 did it give?
Answer: 40.3 nM

Question: Which EC50 does the source give for `CC[C@H](C)[C@H](NC(=O)[C@H](CCC(=O)O)NC(=O)[C@H](CO)NC(=O)[C@@H](NC(=O)[C@@H](N)CO)C(C)C)C(=O)N[C@@H](CCC(N)=O)C(=O)N[C@@H](CC(C)C)C(=O)N[C@@H](CCSC)C(=O)N[C@@H](Cc1c[nH]cn1)C(=O)N[C@@H](CC(N)=O)C(=O)N[C@@H](CC(C)C)C(=O)NCC(=O)N[C@@H](CCCCN)C(=O)N[C@@H](Cc1c[nH]cn1)C(=O)N[C@@H](CC(C)C)C(=O)N[C@@H](CC(N)=O)C(=O)N[C@@H](CO)C(=O)N[C@@H](CCSC)C(=O)N[C@@H](CCC(=O)O)C(=O)N[C@@H](CCCN=C(N)N)C(=O)N[C@H](C(=O)N[C@H]1CCC(=O)NCCCC[C@@H](C(=O)N[C@@H](CC(C)C)C(=O)N[C@@H](CC(C)C)C(=O)N[C@@H](CCC(N)=O)C(=O)N[C@@H](CC(=O)O)C(N)=O)NC(=O)[C@H](CCCN=C(N)N)NC(=O)[C@H](CC(C)C)NC(=O)[C@H](Cc2c[nH]c3ccccc23)NC1=O)C(C)C` (H-SVSEIQLMHNLGKHLNSMERVEWLRKLLQD-NH2; lactam 22-26) here?
Answer: 20 nM

Question: Which EC50 does the source give for `CC[C@H](C)[C@H](NC(=O)[C@H](CCC(=O)O)NC(=O)[C@H](CO)NC(=O)[C@@H](NC(=O)[C@@H](N)CO)C(C)C)C(=O)N[C@@H](CCC(N)=O)C(=O)N[C@@H](CC(C)C)C(=O)N[C@@H](CCSC)C(=O)N[C@@H](Cc1c[nH]cn1)C(=O)N[C@@H](CC(N)=O)C(=O)N[C@@H](CC(C)C)C(=O)NCC(=O)N[C@@H](CCCCN)C(=O)N[C@@H](Cc1c[nH]cn1)C(=O)N[C@@H](CC(C)C)C(=O)N[C@@H](CC(N)=O)C(=O)N[C@@H](CO)C(=O)N[C@@H](CCSC)C(=O)N[C@@H](CCC(=O)O)C(=O)N[C@@H](CCCN=C(N)N)C(=O)N[C@H](C(=O)N[C@H]1CCC(=O)NCCCC[C@@H](C(=O)N[C@@H](CC(C)C)C(=O)N[C@@H](CC(C)C)C(=O)N[C@@H](CCC(N)=O)C(=O)N[C@@H](CC(=O)O)C(=O)N[C@H](C(N)=O)C(C)C)NC(=O)[C@H](CCCN=C(N)N)NC(=O)[C@H](CC(C)C)NC(=O)[C@H](Cc2c[nH]c3ccccc23)NC1=O)C(C)C` (H-SVSEIQLMHNLGKHLNSMERVEWLRKLLQDV-NH2; lactam 22-26) here?
Answer: 3.3 nM

Question: H-SVSEIQLMHNLGKHLNSMERVEWLRKKLQD-NH2 was tested. Which EC50 did it give?
Answer: 20 nM

Question: For H-SVSEIQLMHNLGKHLNSMERVEWLRKLLQD-NH2, which EC50 is on record?
Answer: 20 nM

— ChEMBL document CHEMBL1130004, “Bioactivities and secondary structures of constrained analogues of human parathyroid hormone: cyclic lactams of the receptor binding region” (J Med Chem, 1997)
